Measured values as given in patent US20190136188A1, “4HPR AND ITS USE IN THE CULTURING OF HEMATOPOIETIC STEM CELLS” (UNIVERSITY HEALTH NETWORK, priority 2016, published 2019).

What was measured:
DEGS1 [1] = biological target: T1, DEGS1 (Homo sapiens, UniProt O15121); test: Lipid mass spectrometry (LC/MS) of sphingolipids, DEGS1 activity; format: cell-based
T1 construct: endogenous in cells; host or cells: lineage-depleted human cord blood (lin- CB) cells
T1 sequence (O15121 1-323): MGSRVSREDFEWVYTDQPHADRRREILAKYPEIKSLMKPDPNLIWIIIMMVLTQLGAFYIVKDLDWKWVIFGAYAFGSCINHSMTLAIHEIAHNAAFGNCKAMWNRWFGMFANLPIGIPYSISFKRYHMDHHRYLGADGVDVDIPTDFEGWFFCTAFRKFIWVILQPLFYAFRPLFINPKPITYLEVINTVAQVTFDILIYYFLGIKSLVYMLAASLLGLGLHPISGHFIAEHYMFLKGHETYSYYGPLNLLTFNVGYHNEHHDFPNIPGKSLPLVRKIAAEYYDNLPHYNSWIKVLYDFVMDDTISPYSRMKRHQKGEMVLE
Text: All experiments following are at this 4HPR concentration unless otherwise indicated. […] (C) LC/MS was used to profile the ceramide (Cer), dihydroceramide (dhCer), sphingosine (sph), dihydrosphingosine (dhSph), S1P and dihydro-S1P (dhS1P) levels in lin− CB cells cultured for 8 days with control or 4HPR (n=2).

CB stem and prog cells = test: Flow cytometry for ROS (CELLROX), mitochondrial membrane potential (TMRE), mitochondrial mass (mitotracker green); format: cell-based, human
[2] = tested on: long-term repopulating cell (LTRC) in NSG mice; test: Serial (secondary) transplantation limiting dilution analysis, LTRC frequency; format: in vivo
Text: (A) Experimental scheme (B) Representative FACS analysis data of in vitro culture for 16 HSC dose time course (n=3). The number of (C) viable cells, (D) CD15+ myeloid cells, (E) GlyA+ erythroid cells, and (F) CD34+ primitive cells measured for the 16 LTRC dose with HTS flow cytometry analysis at day 8 post-treatment for vehicle control or 4HPR prior to xenotransplantation (n=5 biological replicates, 4 in technical triplicate, marked with different symbols). (G) Human CD45+ engraftment at 16 weeks post transplant in injected femur (n=4, 5 mice/biological experiment). Lineage analysis of control or 4HPR transplanted mice from FIG. 5G for (H) B lymphoid, (I) myeloid, (J) erythroid, and (K) primitive CD34+ at the 16 LTRC dose. (L) CD45+ cells were isolated from 5 biological experiments of the 16 LTRC dose primary mice and transplanted at limiting doses into secondary recipients for 16 weeks. Human CD45+ marking of >0.1% was considered positive for secondary engraftment. Limiting dilutation analysis was performed using ELDA software and the long-term repopulating cell (LTRC) frequency for each biological replicate plotted and the average LTRC frequency calculated.
(A) The number of cells following 8 days of ex vivo culture at the 16 LTRC dose grown as in FIG. 5A for the indicated drug treatments (n=2). […] (2 biological replicates) (E) CD45+ cells were isolated from 2 biological experiments of the 16 LTRC dose primary mice and transplanted at limiting doses into secondary recipients for 16 weeks. Human CD45+ marking of >0.01% was considered positive for secondary engraftment. Limiting dilutation analysis was performed using ELDA software and the long-term repopulating cell (LTRC) frequency for each biological replicate plotted and the average LTRC frequency calculated.
To determine if 4HPR preserves functional HSC in CB liquid culture, we devised an experimental protocol to test the effect of 4HPR treatment in short-term ex vivo expansion culture on repopulation in serial NSG xenotransplantation to functionally read out LT-HSC (FIG. 5A). […]

lin- CB cells = test: RNA-sequencing gene set enrichment; format: cell-based, human; conditions: 4HPR vs Ctrl
Text: RNA from 3 pools of Lin− CB cells treated with vehicle control, 4HPR, UM171+SR1 or the triple combination of 4HPR+UM171+SR1 for 2 days were subjected to RNA-sequencing without amplification on the Illumina HiSeq 2500. (A) Functional enrichment map of gene sets enriched (red) by 4HPR treatment including or enriched by Ctrl treatment (blue) at day 2.
To elucidate the genetic pathways enriched by 4HPR treatment in human CB that may contribute to preserving HSC function in ex vivo expansion alone or in combination with UM171 and SR1, we performed RNA-sequencing of 3 pools of lin-CB at day 2 and day 4 following treatment with all four treatment groups. To avoid amplification bias, RNA-seq was performed on samples without amplification. […] The latter is known to be regulated by autophagy (Singh, Nature, 2009).

DEGS1 [3] = conditions: prolong exposure at micromolar concentrations in vitro; cited from earlier work
[4] = lin-CB cells cultured 8 days, 2 uM 4HPR
[5] = stem and prog cells, day 2 and day 3

dhCer and dhSph levels (DEGS1 [1]; 8 day culture, alone or in combination with UM171 and SR1): increases dhCer and dhSph | levels of the signaling lipid S1P (DEGS1 [1]; [4]): not altered | total ceramide compared to control (DEGS1 [1]; [4]): decrease total ceramide | total dihydroceramide compared to control (DEGS1 [1]; [4]): increase total dihydroceramide
Structure (SMILES): CC1=C(/C=C/C(C)=C/C=C/C(C)=C/C(=O)Nc2ccc(O)cc2)C(C)(C)CCC1 [4HPR, N-(4hydroxyphenyl)retinamide]
mitochondrial mass (CB stem and prog cells; progenitor cells, 2 days of treatment): does decrease mitochondrial mass | ROS (CB stem and prog cells; [5]): decreased | mitochondrial mass (CB stem and prog cells; [5]): decreased | mitochondrial membrane potential (CB stem and prog cells; [5]): decreased | mitochondrial mass (CB stem and prog cells; stem cells, 2 days of treatment): without significantly altering mitochondrial mass in stem cells | mitochondrial mass (CB stem and prog cells; stem cells, D3 post-treatment): decreases mitochondrial mass by day 3 post-treatment in stem cells | frequency of LT-HSC ([2]; 4HPR added to SR1+UM171 treatment compared to SR1+UM171 treatment alone): doubled | average LTRC frequency ([2]; 4HPR treated cells, through 32 weeks of xenotransplantation): 1e6 CD45+ cells | increase in SRC over control treatment ([2]; through 32 weeks of xenotransplantation, n=5, p=0.02): 3 fold | ER stress and UPR gene sets (lin- CB cells): upregulates ER stress and UPR gene sets | autophagy gene sets (lin- CB cells): enriched for autophagy gene sets including mitophagy | ceramide/sphingolipid biosynthesis gene sets (lin- CB cells): enrichment of ceramide/sphingolipid biosynthesis gene sets | cholesterol/sterol biosynthetic pathways (lin- CB cells): decrease in cholesterol/sterol biosythetic pathways | DEGS1 activity (DEGS1 [3]): irreversibly inhibits DEGS1 activity
